Results reported in PubChem BioAssay (NCI).
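GI50 is the concentration that inhibits growth by half. The concentration for full growth arrest is given as TGI.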

Key:
Assay in all cases: DTP human tumour cell line panel, 384-well format
MDA-MB-468 breast = test system: MDA-MB-468 breast
OVCAR-3 ovarian = test system: OVCAR-3 ovarian
OVCAR-8 ovarian = test system: OVCAR-8 ovarian
UO-31 renal = test system: UO-31 renal
ACHN renal = test system: ACHN renal
MALME-3M melanoma = test system: MALME-3M melanoma
HCT-15 colon = test system: HCT-15 colon
SW-620 colon = test system: SW-620 colon
IGROV1 ovarian = test system: IGROV1 ovarian
NCI-H460 NSCLC = test system: NCI-H460 NSCLC
RXF 393 renal = test system: RXF 393 renal
CAKI-1 renal = test system: CAKI-1 renal
SF-268 CNS = test system: SF-268 CNS
MOLT-4 leukemia = test system: MOLT-4 leukemia
DU-145 prostate = test system: DU-145 prostate
HCC-2998 colon = test system: HCC-2998 colon
MDA-MB-435 melanoma = test system: MDA-MB-435 melanoma
PC-3 prostate = test system: PC-3 prostate
SN12C renal = test system: SN12C renal
SF-539 CNS = test system: SF-539 CNS
UACC-257 melanoma = test system: UACC-257 melanoma
U251 glioblastoma = test system: U251 glioblastoma
RPMI-8226 leukemia = test system: RPMI-8226 leukemia
BT-549 breast = test system: BT-549 breast
MDA-MB-231 breast = test system: MDA-MB-231 breast
A549 NSCLC = test system: A549 NSCLC
KM12 colon = test system: KM12 colon
SR leukemia = test system: SR leukemia
HT29 colon = test system: HT29 colon
EKVX NSCLC = test system: EKVX NSCLC
HOP-92 NSCLC = test system: HOP-92 NSCLC
TK-10 renal = test system: TK-10 renal
LOX IMVI melanoma = test system: LOX IMVI melanoma
UACC-62 melanoma = test system: UACC-62 melanoma
T-47D breast = test system: T-47D breast
SF-295 CNS = test system: SF-295 CNS
SK-MEL-28 melanoma = test system: SK-MEL-28 melanoma
HL-60(TB) leukemia = test system: HL-60(TB) leukemia
MCF7 breast = test system: MCF7 breast
SNB-75 CNS = test system: SNB-75 CNS
NCI/ADR-RES ovarian = test system: NCI/ADR-RES ovarian
HCT-116 colon = test system: HCT-116 colon
NCI-H322M lung = test system: NCI-H322M lung
K-562 leukemia = test system: K-562 leukemia
OVCAR-4 ovarian = test system: OVCAR-4 ovarian
A498 renal = test system: A498 renal
NCI-H23 lung = test system: NCI-H23 lung

`O=C(O)[C@H](Cc1c[nH]c2ccccc12)N1C(=O)c2ccccc2C1=O` showed a GI50 (MDA-MB-468 breast) greater than 100 µM, a TGI (MDA-MB-468 breast) greater than 100 µM and a GI50 (OVCAR-3 ovarian) greater than 100 µM. It also gave a TGI (OVCAR-3 ovarian) greater than 100 µM, a GI50 (OVCAR-8 ovarian) greater than 100 µM and a TGI (OVCAR-8 ovarian) greater than 100 µM. For the same compound, the GI50 (UO-31 renal) was greater than 100 µM, the TGI (UO-31 renal) was greater than 100 µM and the GI50 (ACHN renal) was greater than 100 µM. For the same compound, the TGI (ACHN renal) was greater than 100 µM, the GI50 (MALME-3M melanoma) was greater than 100 µM and the TGI (MALME-3M melanoma) was greater than 100 µM. The GI50 (HCT-15 colon) was greater than 100 µM, the TGI (HCT-15 colon) was greater than 100 µM and the GI50 (SW-620 colon) was greater than 100 µM. For the same compound, the TGI (SW-620 colon) was greater than 100 µM, the GI50 (IGROV1 ovarian) was greater than 100 µM and the TGI (IGROV1 ovarian) was greater than 100 µM. It also gave a GI50 (NCI-H460 NSCLC) greater than 100 µM, a TGI (NCI-H460 NSCLC) greater than 100 µM and a GI50 (RXF 393 renal) greater than 100 µM. For the same compound, the TGI (RXF 393 renal) was greater than 100 µM, the GI50 (CAKI-1 renal) was greater than 100 µM and the TGI (CAKI-1 renal) was greater than 100 µM. For the same compound, the GI50 (SF-268 CNS) was greater than 100 µM, the TGI (SF-268 CNS) was greater than 100 µM and the GI50 (MOLT-4 leukemia) was greater than 100 µM. It also gave a TGI (MOLT-4 leukemia) greater than 100 µM, a GI50 (DU-145 prostate) greater than 100 µM and a TGI (DU-145 prostate) greater than 100 µM. It also gave a GI50 (HCC-2998 colon) greater than 100 µM, a TGI (HCC-2998 colon) greater than 100 µM and a GI50 (MDA-MB-435 melanoma) greater than 100 µM. It also gave a TGI (MDA-MB-435 melanoma) greater than 100 µM, a GI50 (PC-3 prostate) greater than 100 µM and a TGI (PC-3 prostate) greater than 100 µM. The GI50 (SN12C renal) was greater than 100 µM, the TGI (SN12C renal) was greater than 100 µM and the GI50 (SF-539 CNS) was greater than 100 µM. The TGI (SF-539 CNS) was greater than 100 µM, the GI50 (UACC-257 melanoma) was greater than 100 µM and the TGI (UACC-257 melanoma) was greater than 100 µM. The GI50 (U251 glioblastoma) was greater than 100 µM, the TGI (U251 glioblastoma) was greater than 100 µM and the GI50 (RPMI-8226 leukemia) was greater than 100 µM. It also gave a TGI (RPMI-8226 leukemia) greater than 100 µM, a GI50 (BT-549 breast) greater than 100 µM and a TGI (BT-549 breast) greater than 100 µM. For the same compound, the GI50 (MDA-MB-231 breast) was greater than 100 µM, the TGI (MDA-MB-231 breast) was greater than 100 µM and the GI50 (A549 NSCLC) was greater than 100 µM. For the same compound, the TGI (A549 NSCLC) was greater than 100 µM, the GI50 (KM12 colon) was greater than 100 µM and the TGI (KM12 colon) was greater than 100 µM. It also gave a GI50 (SR leukemia) greater than 100 µM, a TGI (SR leukemia) greater than 100 µM and a GI50 (HT29 colon) greater than 100 µM. It also gave a TGI (HT29 colon) greater than 100 µM, a GI50 (EKVX NSCLC) greater than 100 µM and a TGI (EKVX NSCLC) greater than 100 µM. It also gave a GI50 (HOP-92 NSCLC) greater than 100 µM, a TGI (HOP-92 NSCLC) greater than 100 µM and a GI50 (TK-10 renal) greater than 100 µM. It also gave a TGI (TK-10 renal) greater than 100 µM, a GI50 (LOX IMVI melanoma) greater than 100 µM and a TGI (LOX IMVI melanoma) greater than 100 µM. For the same compound, the GI50 (UACC-62 melanoma) was greater than 100 µM, the TGI (UACC-62 melanoma) was greater than 100 µM and the GI50 (T-47D breast) was greater than 100 µM. It also gave a TGI (T-47D breast) greater than 100 µM, a GI50 (SF-295 CNS) greater than 100 µM and a TGI (SF-295 CNS) greater than 100 µM. For the same compound, the GI50 (SK-MEL-28 melanoma) was greater than 100 µM, the TGI (SK-MEL-28 melanoma) was greater than 100 µM and the GI50 (HL-60(TB) leukemia) was greater than 100 µM. For the same compound, the TGI (HL-60(TB) leukemia) was greater than 100 µM, the GI50 (MCF7 breast) was greater than 100 µM and the TGI (MCF7 breast) was greater than 100 µM. It also gave a GI50 (SNB-75 CNS) greater than 100 µM, a TGI (SNB-75 CNS) greater than 100 µM and a GI50 (NCI/ADR-RES ovarian) greater than 100 µM. For the same compound, the TGI (NCI/ADR-RES ovarian) was greater than 100 µM, the GI50 (HCT-116 colon) was greater than 100 µM and the TGI (HCT-116 colon) was greater than 100 µM. The GI50 (NCI-H322M lung) was greater than 100 µM, the TGI (NCI-H322M lung) was greater than 100 µM and the GI50 (K-562 leukemia) was greater than 100 µM. It also gave a TGI (K-562 leukemia) greater than 100 µM, a GI50 (OVCAR-4 ovarian) greater than 100 µM and a TGI (OVCAR-4 ovarian) greater than 100 µM. It also gave a GI50 (A498 renal) greater than 100 µM, a TGI (A498 renal) greater than 100 µM and a GI50 (NCI-H23 lung) greater than 100 µM. The TGI (NCI-H23 lung) was greater than 100 µM.
